Experimental data as given in paper PMC8373216, “Development and Preclinical Evaluation of New Inhaled Lipoglycopeptides for the Treatment of Persistent Pulmonary Methicillin-Resistant Staphylococcus aureus Infections” (Antimicrobial Agents and Chemotherapy, 2021).
≈ marks a conversion by molar mass, not a printed value. Read-outs that look alike come from different tables or passages of the source.

Assays:
Clostridium. perfringens = test: microbe, parasite or virus in culture; type: cell-based
Streptococcus agalactiae = test: Expanded panel broth microdilution MIC/MBC; type: cell-based
Enterococcus faecium = test: Expanded panel broth microdilution MIC/MBC; type: cell-based; conditions: for MIC: Enterococcus faecium
[1] = Single-dose nebulized nose-only inhalation PK in healthy rats; type: in vivo, rat
Procedure: Rats were acclimated in the study facility for approximately 1 week prior to study start. Ten or eleven rats per cohort were loaded into the chamber at the time of dosing. […] An additional airflow set to 6 liters/min was admixed with the nebulizer output to further direct the test articles to the animals. […] The remaining port on the chamber was fit with an aerosol sampling filter for dose determination over a 5 min sampling period. The average dose delivered to the nose of each animal was calculated using an algorithm that was previously described ([49]). […] Animals were euthanized for collection of whole lungs and plasma at time points ranging from immediate postdose (IPD; approximately 30 min after dosing for nebulization) to 168 h postdose (7 days). Drugs were extracted from tissues using customized protein precipitation methods with an appropriate internal standard for each compound and transferred for analysis by LC-MS/MS (Sciex API4500 or API6500+ mass spectrometer [Sciex, Framingham, MA]). GraphPad Prism (La Jolla, CA) was used for statistical analyses and data plotting. […] The data were applied to a noncompartmental analysis after extravascular dosing input and fit to a linear up/log down model. Statistical analysis of in vitro intracellular and biofilm activity was based on a two-way ANOVA with a Bonferroni post test. In vivo statistical analysis was based on the Kolmogorov-Smirnov test.

[2] = tested on: MRSA ATCC BAA 1556 (USA300); test: In-house broth microdilution MIC screening; type: cell-based, Staphylococcus aureus; conditions: Staphylococcus aureus, read-out: MIC Value, MRSA ATCC BAA 1556
[3] = tested on: Streptococcus constellatus; test: Expanded panel broth microdilution MIC; type: cell-based
[4] = tested on: Staphylococcus haemolyticus; test: Expanded panel broth microdilution MIC; type: cell-based
Streptococcus oralis = test: Expanded panel broth microdilution MIC; type: cell-based
[5] = tested on: MRSA ATCC BAA 1556 (USA300) biofilm; test: Static MRSA biofilm killing, plastic microtiter plate, MEM
Clostridioides difficile = test: Expanded panel broth microdilution MIC; type: cell-based
[6] = tested on: Peptostreptococcus anaerobius; test: Expanded panel broth microdilution MIC; type: cell-based
[7] = tested on: Staphylococcus lugdunensis; test: Expanded panel broth microdilution MIC; type: cell-based
[8] = single nebulized nose-only inhaled dose, healthy rats

## CCCCCCCCCCNCCN[C@@]1(C)C[C@H](O[C@H]2[C@H](Oc3c4cc5cc3Oc3ccc(cc3Cl)[C@@H](O)[C@@H](NC(=O)[C@@H](CC(C)C)NC)C(=O)N[C@@H](CC(N)=O)C(=O)N[C@H]5C(=O)N[C@H]3C(=O)N[C@H](C(=O)N[C@H](C(=O)O)c5cc(O)c(CNCP(=O)(O)O)c(O)c5-c5cc3ccc5O)[C@H](O)c3ccc(c(Cl)c3)O4)O[C@H](CO)[C@@H](O)[C@@H]2O)O[C@@H](C)[C@H]1O [Telavancin, telavancin]
Clostridium. perfringens
  MIC: 0.015 µg/mL (≈ 0.00854 µM)
Clostridium. perfringens; ATCC13124, read-out: MIC
  MIC: 0.015 µg/mL (≈ 0.00854 µM)
Streptococcus agalactiae; S. agalactiae MMX 4115, ermR
  MIC: 0.06 µg/mL (≈ 0.0342 µM)
Streptococcus agalactiae; S. agalactiae ermR, 1 isolate
  MIC: 0.06 µg/mL (≈ 0.0342 µM)
Streptococcus agalactiae; S. agalactiae, MBC on one organism
  MIC:MBC: >8
Streptococcus agalactiae; Streptococcus agalactiae
  MIC: 0.06 µg/mL (≈ 0.0342 µM)
Streptococcus agalactiae; Streptococcus agalactiae, ATCC13813
  MIC: 0.06 µg/mL (≈ 0.0342 µM)
Streptococcus agalactiae; Streptococcus agalactiae, read-out: MIC (median)
  MIC: 0.06 µg/mL (≈ 0.0342 µM)
Enterococcus faecium; E. faecium VanA VRE
  MIC:MBC: >4
Enterococcus faecium; E. faecium VanB VRE
  MIC:MBC: >8
Enterococcus faecium; E. faecium MMX 4204, VSE
  MIC: 0.06 µg/mL (≈ 0.0342 µM)
Enterococcus faecium; E. faecium VSE, 1 isolate
  MIC: 0.06 µg/mL (≈ 0.0342 µM)
Enterococcus faecium; VRE, E. faecium MMX 173, VanB VRE
  MIC: 0.06 µg/mL (≈ 0.0342 µM)
Enterococcus faecium; VRE, E. faecium MMX 851, VanA VRE
  MIC: 2 µg/mL (≈ 1.14 µM)
Enterococcus faecium; VRE, E. faecium VanA VRE, 1 isolate
  MIC: 2 µg/mL (≈ 1.14 µM)
Enterococcus faecium; VRE, E. faecium VanB VRE, 1 isolate
  MIC: 0.06 µg/mL (≈ 0.0342 µM)
[1]; male, Sprague Dawley, rat, in vivo, inhaled or intranasal, single nebulized nose-only inhaled dose, healthy rats, noncompartmental analysis, read-out: Lung t1/2 (converted)
  half-life: 21.1 days
[1]; relative to IPD level, rat lung
  Drug lung level at 120 h: 81%
[1]; [8]
  Lung AUC0-∞: 3877 µg·h/g
  Lung Cmax: 12 µg/g
  Plasma Cmax: BLQ
[2]
  MIC: 0.063 µg/mL (≈ 0.0359 µM)
[3]; S. constellatus AGS, 1 isolate
  MIC: 0.03 µg/mL (≈ 0.0171 µM)
[3]; Streptococcus constellatus
  MIC: 0.03 µg/mL (≈ 0.0171 µM)
[4]
  MIC: 0.06 µg/mL (≈ 0.0342 µM)
[4]; ATCC29970
  MIC: 0.06 µg/mL (≈ 0.0342 µM)
Streptococcus oralis; S. oralis MGS, 1 isolate
  MIC: 0.06 µg/mL (≈ 0.0342 µM)
Streptococcus oralis; Streptococcus oralis
  MIC: 0.06 µg/mL (≈ 0.0342 µM)
[5]; doses 1 to 10 μg/ml
  Reduction in MRSA biofilm titer versus control: approximately 2 log10 CFU/ml
[5]; two-way ANOVA, Bonferroni
  Concentrations with statistically significant reduction versus control biofilm: ≥ 10 µg/mL
Clostridioides difficile; ATCCBAA1805, C. difficile ATCC BAA-1805, ribo 027
  MIC: 0.12 µg/mL (≈ 0.0684 µM)
Clostridioides difficile; ATCCBAA1870, C. difficile ATCC BAA-1870, NAP1;ribo 027
  MIC: 0.12 µg/mL (≈ 0.0684 µM)
Clostridioides difficile; C. difficile ATTC 700057, toxAB-
  MIC: 0.12 µg/mL (≈ 0.0684 µM)
Clostridioides difficile; C. difficile NAP1;ribo 027, 1 isolate
  MIC: 0.12 µg/mL (≈ 0.0684 µM)
Clostridioides difficile; C. difficile ribo 027, 1 isolate
  MIC: 0.12 µg/mL (≈ 0.0684 µM)
Clostridioides difficile; C. difficile toxAB-, 1 isolate
  MIC: 0.12 µg/mL (≈ 0.0684 µM)
[6]
  MIC: 0.03 µg/mL (≈ 0.0171 µM)
[6]; ATCC27337
  MIC: 0.03 µg/mL (≈ 0.0171 µM)
[7]; S. lugdunensis, 1 isolate
  MIC: 0.06 µg/mL (≈ 0.0342 µM)
[7]; Staphylococcus lugdunensis
  MIC: 0.06 µg/mL (≈ 0.0342 µM)
